# Measurements published in US20220144775A1, “HYDRAZIDE COMPOUND AND KINASE INHIBITOR” (NISSAN CHEMICAL CORPORATION, priority 2019, published 2022).
# What was measured:
# MDCK cells = assay: Observation of Cyst form with confocal fluorescence microscope; type: cell-based, canine; conditions: 10 μM; β catenin, Phalloidin, DAPI staining; FIG. 1
# Protocol: As for the respective Matrix GFRs containing Cyst cultured in a medium added with DMSO or A-004A (10 μM) and obtained in Experimental Example 3, the cells were washed with PBS (1 mL/well), 4% paraformaldehyde/PBS (manufactured by FUJIFILM Wako Pure Chemical Corporation) was added (1 mL/well) and fixed at room temperature for 20 min. Thereafter, the supernatant was removed, staining buffer [0.2% Triton X-100 (manufactured by Sigma-Aldrich), 0.05% Tween 20 (manufactured by Sigma-Aldrich)-containing PBS] were added at 1 mL/well, stood for 30 min and removed. Penetration buffer (0.5% Triton X-100 (manufactured by Sigma-Aldrich)/PBS) was added at 1 mL/well and incubated at room temperature for 30 min. The supernatant was removed, washed 3 times every 5 min with staining buffer, blocking buffer (1% bovine serum albumin (BSA manufactured by Sigma-Aldrich)/staining buffer) was added at 0.5 mL/well and incubated for 30 min. The supernatant was removed, an anti-β catenin antibody (manufactured by BD Bioscience) diluted 100-fold with blocking buffer was added at 250 μL/well, and the cells were incubated at room temperature for 60 min. […]
# [1] = tested on: Colitis model administered with dextran sulfate sodium (DSS); assay: Inflammation suppressive effect on DSS colitis model mouse; type: in vivo; conditions: C57BL/6NCrl mice; 2.5 w/v % DSS drinking water; 50 mg/kg intraperitoneally every 24 hr; day 8; FIG. 3
# Protocol: Colitis model administered with dextran sulfate sodium (DSS) (manufactured by FUJIFILM Wako Pure Chemical Corporation) was produced as described below. The length of the large intestine is used as a morphological parameter in the evaluation of colitis, and the large intestine shortens according to the degree of inflammation. Therefore, the anti-inflammatory effect of the compound was evaluated by comparing the length of the large intestine. As the Buffer, a 0.5 w/v % methylcellulose aqueous solution (manufactured by FUJIFILM Wako Pure Chemical Corporation) added with Dimethyl sulfoxide (manufactured by FUJIFILM Wako Pure Chemical Corporation) at 1 v/v % was used. It was prepared by suspending compound A-004A in the above-mentioned Buffer at 5 mg/mL. As the mouse, male C57BL/6NCrl, 6-week-old, was purchased from CHARLES RIVER LABORATORIES JAPAN, INC. As drinking water, distilled water or a 2.5 w/v % DSS aqueous solution was freely given. The DSS drinking start date was set as day 1, and the water was given until day 8. Compound A-004A was intraperitoneally administered at 50 mg/kg every 24 hr from day 1. As a negative control, Buffer alone was administered similarly. On day 8, the mouse was dissected, the large intestine was isolated and the length of the large intestine was measured. Conducted in 3-4 cases in each group.
# YAP = YAP phosphorylation inhibitory action in SKOV3 (HTRF); type: cell-based, human; conditions: 10 μM, 1 hr, non-treatment 100%
# Protocol: Human ovarian cancer cell line SKOV3 (manufactured by DS Pharma Biomedical Co., Ltd.) was precultured using a 15% FBS-containing McCoy's 5a medium (manufactured by Sigma-Aldrich) (single layer culture). The above-mentioned cells in the logarithmic growth phase were washed with PBS. A 0.25% (w/v) trypsin-1 mmol/L ethylenediaminetetraacetic acid (EDTA) solution (manufactured by FUJIFILM Wako Pure Chemical Corporation) was added and the adherent cells were incubated at 37° C. for 3 min and detached. The above-mentioned medium was added, and the cells were centrifuged and resuspended in the same medium.
# According to the method of patent document 1 (WO 2014/017513), a composition of 10% FBS-containing DMEM medium (Phenol-red free, manufactured by FUJIFILM Wako Pure Chemical Corporation) containing 0.015% (w/v) deacylated gellan gum (KELCOGEL CG-LA, manufactured by SANSHO Co., Ltd.) was prepared using FCeM-series Preparation Kit (manufactured by FUJIFILM Wako Pure Chemical Corporation). Then, various cells prepared above were suspended in the above-mentioned medium composition (3D culture conditions) added with deacylated gellan gum or a medium without the addition (2D culture conditions), and seeded on a 50 μL/well (manufactured by Corning Incorporated, a 96 well flat bottom plate, #3585, 2D culture conditions) or 25 μL/well (manufactured by Corning Incorporated, 96 well low adhesion flat bottom plate, #3474) at 100000 cells/well. The plate was allowed to stand at 37° C. in a 5% CO2 incubator, and the compound of the present invention diluted with the medium at 2 or 6 times the final concentration, DMSO, or the medium alone was added to the plate 3 hr after the seeding at 50 μL/well (2D culture conditions) or 5 μL/well (3D culture conditions) to make the final concentration of each compound 10 μM. After culture at 37° C. in a 5% CO2 incubator for 1 hr, the supernatant was aspirated, supplemented Lysis buffer (1-fold concentration, manufactured by Cisbio, YAP-total kit or YAP phospho-S27 kit) (50 μL) was added under 2D culture conditions, and supplemented Lysys buffer (4-fold concentration) (10 μL) was added to the culture supernatant under 3D conditions, and the mixture was stirred by a plate shaker for 30 min. Thereafter, the plate was centrifuged, 16 μL of the supernatant was transferred to a 384-well white plate (Corning, #4512), and each antibody solution (pYAP d2 antibody or Total-YAP d2 antibody, and pYAP Cryptate antibody or Total-YAP Cryptate antibody) included in the kit was added at 4 μL/well in total, and the mixture was allowed to stand at room temperature overnight. As a blank control, pYAP Cryptate antibody or Total-YAP Cryptate antibody alone was added to cells free of stimulation with compound and the mixture was treated in the same manner. The next day, the wavelengths at 665 nm and 615′ nm were measured in the HTRF mode of EnVision (manufactured by PerkinElmer).
# The obtained signal was calculated as follows. Ratio=signal (665 nm)/signal (615 nm)×10000, ΔR=Signal(Ratio)−Background fluorescence, and the relative phosphorylated YAP amount or total YAP amount for each compound when ΔR of the compound non-addition group (non-treatment) is 100% is shown in Tables 7 and 8 (2D culture), and Tables 9 and 10 (3D culture). From the results, it was shown that the compound of the present zo invention has a YAP phosphorylation inhibitory action under both 2D and 3D culture conditions.
# LATS2 = target: T1, LATS2 (Homo sapiens, UniProt Q9NRM7); assay: Kinase inhibitory activity against LATS2 (ADP quantification); type: biochemical; conditions: final concentration 1000 nM; ATP 400 μM; read-out: kinase inhibitory rate
# T1 construct: purchased Carna Biosciences
# T1 sequence (Q9NRM7 1-1088): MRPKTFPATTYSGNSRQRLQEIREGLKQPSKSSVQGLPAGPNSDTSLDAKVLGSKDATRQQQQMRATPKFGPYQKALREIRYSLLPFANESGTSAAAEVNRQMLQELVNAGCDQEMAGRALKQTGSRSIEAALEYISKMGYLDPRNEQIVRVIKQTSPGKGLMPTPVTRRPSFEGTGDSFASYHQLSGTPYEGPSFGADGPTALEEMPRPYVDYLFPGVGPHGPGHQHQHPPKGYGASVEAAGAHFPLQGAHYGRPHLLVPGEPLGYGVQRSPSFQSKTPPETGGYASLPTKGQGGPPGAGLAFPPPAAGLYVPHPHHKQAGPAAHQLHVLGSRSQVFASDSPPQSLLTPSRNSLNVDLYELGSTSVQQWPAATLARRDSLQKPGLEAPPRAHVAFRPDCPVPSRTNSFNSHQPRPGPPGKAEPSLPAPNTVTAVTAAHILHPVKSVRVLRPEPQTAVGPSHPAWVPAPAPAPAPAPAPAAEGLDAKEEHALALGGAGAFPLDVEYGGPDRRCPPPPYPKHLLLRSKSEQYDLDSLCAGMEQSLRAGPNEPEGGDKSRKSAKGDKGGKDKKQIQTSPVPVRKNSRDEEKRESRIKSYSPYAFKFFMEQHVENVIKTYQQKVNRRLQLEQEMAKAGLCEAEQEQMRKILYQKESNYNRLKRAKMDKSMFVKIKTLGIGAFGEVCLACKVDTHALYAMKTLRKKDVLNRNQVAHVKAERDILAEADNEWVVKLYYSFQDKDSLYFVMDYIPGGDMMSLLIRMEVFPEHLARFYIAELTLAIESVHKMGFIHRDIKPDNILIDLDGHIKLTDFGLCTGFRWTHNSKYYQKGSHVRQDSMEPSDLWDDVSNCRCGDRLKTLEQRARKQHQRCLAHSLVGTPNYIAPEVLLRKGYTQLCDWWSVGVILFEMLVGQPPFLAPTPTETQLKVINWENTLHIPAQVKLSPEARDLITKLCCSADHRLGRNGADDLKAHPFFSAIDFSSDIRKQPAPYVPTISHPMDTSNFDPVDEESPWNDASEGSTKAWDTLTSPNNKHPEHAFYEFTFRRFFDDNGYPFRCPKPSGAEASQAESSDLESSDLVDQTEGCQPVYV
# Protocol: (§1) Evaluation of the inhibitory activity (calculation of kinase inhibitory rate) of the compound of the present invention against LATS1 and LATS2 (manufactured by Carna Biosciences) was performed. The activity was measured using the Kinase Assay method described below. The test concentration of the compound of the present invention was set such that the final concentration was 100 nM or 1000 nM.
# (§2) As the analysis method of the data, the mean signal of the control well containing reaction components other than the compound of the present invention was set to 0% inhibition, the mean signal without enzyme addition was set to 100% inhibition, and the inhibition rate was calculated from the mean signal of 2 wells of each compound.
# (§3) 2 μL of a compound of the present invention solution at 2.5-fold concentration, 1 μL of substrate at 5-fold concentration (SGKtide: NH2-CKKRNRRLSVA-COOH, manufactured by SignalChem), ATP (manufactured by Sigma-Aldrich), MgCl2 (manufactured by FUJIFILM Wako Pure Chemical Corporation) solution (final concentration 10 μM, 400 μM and 5 mM, respectively), and 2 μL of kinase solution at 2.5-fold concentration (final concentration of LATS1 or LATS2 5 μg/mL), each prepared with assay buffer (20 mM HEPES, 0.01% Triton X-100, 2 mM DTT, 50 μg/mL BSA, pH 7.5), were mixed in the wells of a polypropylene 384-well plate (manufactured by Greiner Bio-One, #784900) and reacted at room temperature for 5 hr. To the solution was added 5 μL detection solution [Fluorospark (registered trade mark) Kinase/ADP Multi-Assay Kit; manufactured by FUJIFILM Wako Pure Chemical Corporation], and the mixture was reacted at room temperature for 30 min. Successively, 5 μL of a reaction quenching liquid [Fluorospark (registered trade mark) Kinase/ADP Multi-Assay Kit; manufactured by FUJIFILM Wako Pure Chemical Corporation] was added to discontinue the reaction. Thereafter, the ADP concentration of the reaction solution was quantified by EnSpire (manufactured by PerkinElmer) to detect the kinase reaction.
# LATS1 = target: T2, LATS1 (Homo sapiens, UniProt O95835); assay: Kinase inhibitory activity against LATS1 (ADP quantification); type: biochemical; conditions: final concentration 1000 nM; ATP 400 μM; read-out: kinase inhibitory rate
# T2 construct: purchased Carna Biosciences
# T2 sequence (O95835 1-1130): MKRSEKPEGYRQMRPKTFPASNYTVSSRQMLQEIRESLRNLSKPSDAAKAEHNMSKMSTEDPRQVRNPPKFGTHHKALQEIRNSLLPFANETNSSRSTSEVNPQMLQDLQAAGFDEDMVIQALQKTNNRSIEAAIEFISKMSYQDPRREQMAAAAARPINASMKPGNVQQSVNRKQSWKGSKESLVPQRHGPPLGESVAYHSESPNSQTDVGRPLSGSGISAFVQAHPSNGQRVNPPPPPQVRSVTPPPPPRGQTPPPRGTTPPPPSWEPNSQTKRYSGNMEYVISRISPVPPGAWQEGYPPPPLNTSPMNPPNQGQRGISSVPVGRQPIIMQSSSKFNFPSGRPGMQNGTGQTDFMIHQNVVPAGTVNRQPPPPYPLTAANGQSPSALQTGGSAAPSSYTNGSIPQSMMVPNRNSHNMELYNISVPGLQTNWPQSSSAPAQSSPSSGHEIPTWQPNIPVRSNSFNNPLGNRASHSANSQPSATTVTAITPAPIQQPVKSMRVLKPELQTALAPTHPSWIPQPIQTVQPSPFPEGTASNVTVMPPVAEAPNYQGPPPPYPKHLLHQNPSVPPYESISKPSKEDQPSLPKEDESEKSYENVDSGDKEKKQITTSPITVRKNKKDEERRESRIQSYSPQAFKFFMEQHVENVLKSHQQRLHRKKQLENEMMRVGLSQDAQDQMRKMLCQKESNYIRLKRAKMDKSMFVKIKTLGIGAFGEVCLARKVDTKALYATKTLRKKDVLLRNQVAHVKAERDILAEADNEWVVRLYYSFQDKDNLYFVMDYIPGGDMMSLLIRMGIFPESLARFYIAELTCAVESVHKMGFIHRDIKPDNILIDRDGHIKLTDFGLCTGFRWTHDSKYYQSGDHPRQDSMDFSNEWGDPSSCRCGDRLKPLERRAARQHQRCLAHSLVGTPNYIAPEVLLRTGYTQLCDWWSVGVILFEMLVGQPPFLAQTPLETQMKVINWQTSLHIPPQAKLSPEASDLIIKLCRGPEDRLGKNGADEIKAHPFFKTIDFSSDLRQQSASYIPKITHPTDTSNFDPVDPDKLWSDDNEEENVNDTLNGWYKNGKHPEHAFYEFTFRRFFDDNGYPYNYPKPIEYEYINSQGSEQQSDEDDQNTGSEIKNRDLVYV
# Protocol: as §1, §2, §3
inhibition at 1 µM (LATS2) [%],inhibition at 1 µM (LATS1) [%],Structure (SMILES),Cyst form (MDCK cells),length of the large intestine [1],phosphorylated YAP amount (%) (YAP; 2D culture conditions),total YAP amount (%) (YAP; 2D culture conditions),phosphorylated YAP amount (%) (YAP; 3D culture conditions),total YAP amount (%) (YAP; 3D culture conditions)
–,–,"CC/C(=N\NC(=O)C(C)Nc1cccnc1)c1ccc(O)c(C)c1O (single isomer, unassigned) [A-004A, (E)-N′-(1-(2,4-dihydroxy-3-methylphenyl)propylidene)-2-(pyridin-3-ylamino)propanehydrazide]",Cyst with a normal form was formed,shortening of the large intestine was suppressed more,14,97,11,112
≥ 40,≥ 40,"CC/C(=N\NC(=O)NCc1cccnc1)c1ccc(O)c(C)c1O [B-001, (E)-2-(1-(2,4-dihydroxy-3-methylphenyl)propylidene)-N-(pyridin-3-ylmethyl)hydrazine-1-carboxamide]",–,–,–,–,–,–
